Results taken from PubChem BioAssay AID180 (DTP/NCI, 2004).
Several values for one entry are separate records, joined by “and”; a condition that tells them apart may be missing. Equal values may be shown once.

System: BDF1 mice, Adenocarcinoma 755 s.c., tumor weight T/C
Test: NCI In Vivo Anticancer Drug Screen. Data for tumor model Adenocarcinoma 755 (subcutaneous) in B6D2F1 (BDF1) mice
Conditions: endpoint: mean tumor weight, schedule: Q01DX011 (ip), higher = larger tumour
In short: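 Tumor-bearing mice receive test compound while controls get vehicle alone. Antitumor effect is scored from survival or tumor dimensions as a T/C quotient.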

[1] = dose: 20.0 mg/kg/injection, vehicle: other
[2] = dose: 31.0 mg/kg/injection, vehicle: carboxymethylcellulose (CMC)
[3] = dose: 31.0 mg/kg/injection, vehicle: methylcellulose (MC)
[4] = dose: 62.0 mg/kg/injection, vehicle: methylcellulose (MC)
[5] = dose: 75.0 mg/kg/injection, vehicle: saline
[6] = dose: 250.0 mg/kg/injection, vehicle: methylcellulose (MC)
[7] = dose: 125.0 mg/kg/injection, vehicle: methylcellulose (MC)
[8] = dose: 30.0 mg/kg/injection, vehicle: other

In the case of `COC1C(OC(=O)/C=C/C=C/C=C/C=C\C(=O)O)CCC2(CO2)C1C1(C)OC1CC=C(C)C` (stereo unspecified), the T/C (dose: 10.0 mg/kg/injection, vehicle: other) is reported as 90 % of control, the T/C [1] is reported as 98 % of control and the T/C (dose: 40.0 mg/kg/injection, vehicle: other) is reported as 64 % of control. For the same compound, the T/C (dose: 80.0 mg/kg/injection, vehicle: other) was 82 % of control and the T/C (dose: 160.0 mg/kg/injection, vehicle: other) was 74 % of control.
In the case of `CN(C)N=Nc1ccc(CCCC(=O)NN)cc1`, the T/C [2] is reported as 60 % of control and the T/C (dose: 62.0 mg/kg/injection, vehicle: carboxymethylcellulose (CMC)) is reported as 10 % of control.
`CC(C)CSc1nc(N)nc2c1ncn2C1OC(CO)C(O)C1O` (stereo unspecified) was tested, and the T/C (dose: 2.32 mg/kg/injection, vehicle: methylcellulose (MC)) was 54 % of control, the T/C (dose: 4.65 mg/kg/injection, vehicle: methylcellulose (MC)) was 37 % of control and the T/C (dose: 9.3 mg/kg/injection, vehicle: methylcellulose (MC)) was 25 % of control. For the same compound, the T/C (dose: 18.75 mg/kg/injection, vehicle: methylcellulose (MC)) was 12 % of control and 15 % of control, the T/C (dose: 37.5 mg/kg/injection, vehicle: methylcellulose (MC)) was 3 % of control and the T/C (dose: 75.0 mg/kg/injection, vehicle: methylcellulose (MC)) was 2 % of control. For the same compound, the T/C (dose: 150.0 mg/kg/injection, vehicle: methylcellulose (MC)) was 2 % of control.
`CSc1ncc(Br)c(SC)n1` was tested, and the T/C [3] was 102 % of control and the T/C [4] was 93 % of control.
With `Nc1[nH]c(=S)ncc1NC=O` the T/C (dose: 30.0 mg/kg/injection, vehicle: carboxymethylcellulose (CMC)) was 90 % of control, the T/C (dose: 120.0 mg/kg/injection, vehicle: carboxymethylcellulose (CMC)) was 91 % of control and the T/C (dose: 240.0 mg/kg/injection, vehicle: carboxymethylcellulose (CMC)) was 79 % of control.
`Nc1ncnc2nc(/N=N/SCCC(=O)O)[nH]c12` was tested, and the T/C (dose: 37.5 mg/kg/injection, vehicle: saline) was 205 % of control, the T/C [5] was 123 % of control and the T/C (dose: 150.0 mg/kg/injection, vehicle: saline) was 56 % of control.
For `CCCCN(C)N=Nc1ccc(C(N)=O)cc1`, the T/C (dose: 16.0 mg/kg/injection, vehicle: carboxymethylcellulose (CMC)) was 14 % of control, the T/C [2] was 27 % of control and the T/C (dose: 50.0 mg/kg/injection, vehicle: carboxymethylcellulose (CMC)) was 25 % of control. For the same compound, the T/C (dose: 75.0 mg/kg/injection, vehicle: carboxymethylcellulose (CMC)) was 14 % of control.
For `CO[C@H](C(=O)[C@@H](O)[C@@H](C)O)[C@@H]1Cc2cc3cc(OC4CC(OC5CC(O)C(O)C(C)O5)C(O)C(C)O4)c(C)c(O)c3c(O)c2C(=O)[C@H]1OC1CC(OC2CC(OC3CC(C)(O)C(O)C(C)O3)C(O)C(C)O2)C(O)C(C)O1` (stereo partly specified), the T/C (dose: 0.25 mg/kg/injection, vehicle: saline) was 59 % of control, the T/C (dose: 0.25 mg/kg/injection, vehicle: water) was 72 % of control and the T/C (dose: 0.5 mg/kg/injection, vehicle: saline) was 57 % of control. The T/C (dose: 0.75 mg/kg/injection, vehicle: water) was 16 % of control and the T/C (dose: 1.0 mg/kg/injection, vehicle: saline) was 11 % of control.
`O=[N+]([O-])c1cc([N+](=O)[O-])c(NN(c2ccccc2)c2ccccc2)c([N+](=O)[O-])c1` was tested, and the T/C (dose: 25.0 mg/kg/injection, vehicle: other) was 86 % of control.
In the case of `CCCNc1cc(=O)[nH]c(N)n1`, the T/C (dose: 55.0 mg/kg/injection, vehicle: methylcellulose (MC)) is reported as 110 % of control and the T/C (dose: 165.0 mg/kg/injection, vehicle: methylcellulose (MC)) is reported as 41 % of control.
For `Brc1ccc(CSc2ncnc3nc[nH]c23)cc1`, the T/C (dose: 43.75 mg/kg/injection, vehicle: methylcellulose (MC)) was 70 % of control, the T/C (dose: 87.5 mg/kg/injection, vehicle: methylcellulose (MC)) was 28 % of control and the T/C (dose: 175.0 mg/kg/injection, vehicle: methylcellulose (MC)) was 10 % of control. For the same compound, the T/C (dose: 350.0 mg/kg/injection, vehicle: methylcellulose (MC)) was 1 % of control.
`CCC(C)Cn1cnc2c(SCC(=O)O)nc(N)nc21` (stereo unspecified) was tested, and the T/C (dose: 25.0 mg/kg/injection, vehicle: methylcellulose (MC)) was 78 % of control, the T/C (dose: 80.0 mg/kg/injection, vehicle: methylcellulose (MC)) was 43 % of control and the T/C [6] was 45 % of control.
With `Clc1nc(Cl)c2ncn(C3CCCO3)c2n1` (stereo unspecified) the T/C (dose: 33.0 mg/kg/injection, vehicle: methylcellulose (MC)) was 65 % of control.
`CC1CN1P1(N2CC2C)=NP(N2CC2C)(N2CC2C)=NP(N2CC2C)(N2CC2C)=N1` (stereo unspecified) was tested, and the T/C (dose: 3.0 mg/kg/injection, vehicle: saline) was 81 % of control, the T/C (dose: 5.0 mg/kg/injection, vehicle: saline) was 53 % of control and the T/C (dose: 9.0 mg/kg/injection, vehicle: saline) was 52 % of control. For the same compound, the T/C (dose: 18.0 mg/kg/injection, vehicle: saline) was 20 % of control and 35 % of control, the T/C (dose: 36.0 mg/kg/injection, vehicle: saline) was 9 % of control and the T/C [5] was 24 % of control.
For `CCOc1ccccc1Nc1cc(Cl)nc(N)n1`, the T/C (dose: 15.0 mg/kg/injection, vehicle: methylcellulose (MC)) was 96 % of control, the T/C [3] was 66 % of control and the T/C [4] was 70 % of control. For the same compound, the T/C [7] was 95 % of control and the T/C [6] was 70 % of control.
In the case of `O=C(O)c1ccc(-c2ccccc2)cc1`, the T/C (dose: 200.0 mg/kg/injection, vehicle: carboxymethylcellulose (CMC)) is reported as 80 % of control.
`CCOC1CCCC(n2cnc3c(Cl)ncnc32)O1` (stereo unspecified) was tested, and the T/C (dose: 7.81 mg/kg/injection, vehicle: methylcellulose (MC)) was 64 % of control, the T/C (dose: 15.63 mg/kg/injection, vehicle: methylcellulose (MC)) was 65 % of control and the T/C (dose: 31.25 mg/kg/injection, vehicle: methylcellulose (MC)) was 43 % of control. The T/C (dose: 62.5 mg/kg/injection, vehicle: methylcellulose (MC)) was 3 % of control and 17 % of control.
`Nc1nc(-c2cccnc2)nc(N)c1N=O` was tested, and the T/C [3] was 120 % of control, the T/C [4] was 166 % of control and the T/C [7] was 119 % of control. For the same compound, the T/C [6] was 81 % of control.
In the case of `c1nc2c3c(n1)ncn3CCN2`, the T/C (dose: 25.0 mg/kg/injection, vehicle: saline) is reported as 85 % of control, the T/C [5] is reported as 74 % of control and the T/C (dose: 225.0 mg/kg/injection, vehicle: saline) is reported as 99 % of control.
For `C=C(C)CSc1ncnc2nc[nH]c12`, the T/C (dose: 1.5 mg/kg/injection, vehicle: other) was 82 % of control, the T/C (dose: 3.0 mg/kg/injection, vehicle: other) was 78 % of control and the T/C (dose: 7.0 mg/kg/injection, vehicle: other) was 22 % of control. The T/C (dose: 15.0 mg/kg/injection, vehicle: other) was 5 % of control, the T/C [8] was 5 % of control and 14 % of control and the T/C (dose: 60.0 mg/kg/injection, vehicle: other) was 2 % of control. The T/C (dose: 120.0 mg/kg/injection, vehicle: other) was 2 % of control.
In the case of `CCC(C)SC1=NC=NC2=NC=NC21` (stereo unspecified), the T/C (dose: 9.0 mg/kg/injection, vehicle: other) is reported as 56 % of control, the T/C (dose: 13.0 mg/kg/injection, vehicle: other) is reported as 33 % of control and the T/C [1] is reported as 6 % of control. The T/C [8] was 6 % of control.
For `CSc1ncc(Br)c(Sc2nc(N)nc3nc[nH]c23)n1`, the T/C (dose: 1.0 mg/kg/injection, vehicle: methylcellulose (MC)) was 75 % of control, the T/C (dose: 3.0 mg/kg/injection, vehicle: methylcellulose (MC)) was 87 % of control and the T/C (dose: 6.0 mg/kg/injection, vehicle: methylcellulose (MC)) was 14 % of control. For the same compound, the T/C (dose: 12.0 mg/kg/injection, vehicle: methylcellulose (MC)) was 3 % of control and the T/C (dose: 15.0 mg/kg/injection, vehicle: carboxymethylcellulose (CMC)) was 10 % of control.
